Tests used:
CYP 1A2 = target: T1, CYP 1A2 (Homo sapiens, UniProt P05177); assay: CYP inhibition in human liver microsomes, 1A2; assay type: in vitro ADME; conditions: pH 7.4, @ 10 μM concn
T1 construct: from tissue; host or cells: human liver microsomes
T1 sequence (P05177 1-516): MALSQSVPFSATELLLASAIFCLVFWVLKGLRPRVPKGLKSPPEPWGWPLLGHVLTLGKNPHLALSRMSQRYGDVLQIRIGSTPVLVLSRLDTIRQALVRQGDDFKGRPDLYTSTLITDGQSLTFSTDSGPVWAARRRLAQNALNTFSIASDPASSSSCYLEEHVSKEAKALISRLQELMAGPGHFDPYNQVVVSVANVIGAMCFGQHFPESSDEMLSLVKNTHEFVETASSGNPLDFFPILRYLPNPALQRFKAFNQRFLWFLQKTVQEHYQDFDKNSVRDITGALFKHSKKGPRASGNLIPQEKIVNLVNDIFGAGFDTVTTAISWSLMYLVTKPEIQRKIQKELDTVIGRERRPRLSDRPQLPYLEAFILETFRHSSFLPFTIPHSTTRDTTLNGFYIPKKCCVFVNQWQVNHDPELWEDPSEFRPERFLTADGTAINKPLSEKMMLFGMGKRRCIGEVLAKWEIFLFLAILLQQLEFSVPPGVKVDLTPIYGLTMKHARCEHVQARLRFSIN
In short: (§1)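 Test compounds at […] and 10 μM were incubated in duplicate with human liver microsomes, probe substrate and 1 mM NADPH in 100 mM phosphate buffer pH 7.4 at 37° C. Reactions were stopped with acetonitrile containing internal standard, and the marker-reaction metabolite was quantified by LC-MS/MS.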

CYP 2D6 = target: T2, CYP 2D6 (Homo sapiens, UniProt P10635); assay: CYP inhibition in human liver microsomes, 2D6; assay type: in vitro ADME; conditions: pH 7.4, @ 10 μM concn
T2 construct: from tissue; host or cells: human liver microsomes
T2 sequence (P10635 whole entry): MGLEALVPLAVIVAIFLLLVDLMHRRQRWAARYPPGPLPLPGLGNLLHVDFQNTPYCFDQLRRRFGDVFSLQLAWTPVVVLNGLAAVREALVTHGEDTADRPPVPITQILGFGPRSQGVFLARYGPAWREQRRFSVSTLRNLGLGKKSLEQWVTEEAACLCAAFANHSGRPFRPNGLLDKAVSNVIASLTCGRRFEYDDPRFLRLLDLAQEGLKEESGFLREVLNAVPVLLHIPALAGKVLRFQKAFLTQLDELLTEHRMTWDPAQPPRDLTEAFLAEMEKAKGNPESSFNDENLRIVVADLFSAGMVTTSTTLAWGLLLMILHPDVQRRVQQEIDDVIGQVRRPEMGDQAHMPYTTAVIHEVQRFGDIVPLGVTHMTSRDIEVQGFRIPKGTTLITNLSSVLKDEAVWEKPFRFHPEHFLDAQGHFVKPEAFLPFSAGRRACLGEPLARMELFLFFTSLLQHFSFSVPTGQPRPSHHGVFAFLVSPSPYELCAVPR
In short: as §1

CYP 2C19 = target: T3, CYP 2C19 (Homo sapiens, UniProt P33261); assay: CYP inhibition in human liver microsomes, 2C19; assay type: in vitro ADME; conditions: pH 7.4, @ 10 μM concn
T3 construct: from tissue; host or cells: human liver microsomes
T3 sequence (P33261 whole entry): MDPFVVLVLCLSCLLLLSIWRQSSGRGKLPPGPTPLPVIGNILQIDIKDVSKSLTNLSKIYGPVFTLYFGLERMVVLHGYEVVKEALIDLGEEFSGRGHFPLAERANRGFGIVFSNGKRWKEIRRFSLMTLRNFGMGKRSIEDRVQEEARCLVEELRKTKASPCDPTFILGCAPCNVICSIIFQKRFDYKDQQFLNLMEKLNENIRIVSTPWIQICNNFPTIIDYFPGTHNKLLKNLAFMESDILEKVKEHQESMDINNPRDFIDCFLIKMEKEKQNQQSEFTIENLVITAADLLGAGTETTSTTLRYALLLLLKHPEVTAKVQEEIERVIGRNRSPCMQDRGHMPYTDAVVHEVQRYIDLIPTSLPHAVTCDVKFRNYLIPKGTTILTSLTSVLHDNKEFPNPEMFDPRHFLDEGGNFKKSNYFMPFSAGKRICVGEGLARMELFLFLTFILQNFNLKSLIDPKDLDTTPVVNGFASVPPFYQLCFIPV
In short: as §1

CIA Arthritis Model = assay: Collagen induced arthritis (CIA) study in mice; assay type: in vivo; conditions: Dose: 10 mpk, po, Mean ± SD, n = 8
Experimental: All the animal experiments were carried out in female rats and mice, bred in-house. Animals were housed in groups of 6 animals per cage, for a week, in order to habituate them to vivarium conditions (25±4° C., 60-65% relative humidity, 12: 12 h light: dark cycle, with lights on at 7.30 am). All the animal experiments were carried out according to the internationally valid guidelines following approval by the ‘Zydus Research Center animal ethical committee’.
Protocol for Collagen Induced Arthritis (CIA) Study in Mice
CIA is a frequently used animal model of human RA (Courtenay, J. S., Dallman, M. J., Dayan, A. D., Martin, A. and Mosedale, B., Nature, 1980, 283, 666-668; Bevaart, L., Vervoordeldonk, M. J., Tak, P. P., Methods Mol. Biol., 2010, 602, 181-192). Following 7 days acclimation, mice were randomly assigned to groups according body weight. Mice were immunized subcutaneously in the tail using bovine type II collagen mix in complete Freund's adjuvant (CFA). Twenty-one days after the first immunization, mice were given booster dose of collagen in incomplete Freund's adjuvant (IFA). Mice were monitored every other day after the booster dose for the development of arthritis. Mice were recruited for the study once clinical signs were visible. Eight animals were assigned each of three groups [vehicle, positive control and test compounds] and treatment was continued for four weeks and percentage inhibition in clinical score is recorded as per graded score. Body weights of the animals were also recorded 3 times a week as a measure of treatment related side effect, paw thickness measured twice a week and blood serum are collected at termination for cytokines profile.

CYP 3A4 = target: T4, CYP 3A4 (Homo sapiens, UniProt P08684); assay: CYP inhibition in human liver microsomes, 3A4; assay type: in vitro ADME; conditions: pH 7.4, @ 10 μM concn
T4 construct: from tissue; host or cells: human liver microsomes
T4 sequence (P08684 whole entry): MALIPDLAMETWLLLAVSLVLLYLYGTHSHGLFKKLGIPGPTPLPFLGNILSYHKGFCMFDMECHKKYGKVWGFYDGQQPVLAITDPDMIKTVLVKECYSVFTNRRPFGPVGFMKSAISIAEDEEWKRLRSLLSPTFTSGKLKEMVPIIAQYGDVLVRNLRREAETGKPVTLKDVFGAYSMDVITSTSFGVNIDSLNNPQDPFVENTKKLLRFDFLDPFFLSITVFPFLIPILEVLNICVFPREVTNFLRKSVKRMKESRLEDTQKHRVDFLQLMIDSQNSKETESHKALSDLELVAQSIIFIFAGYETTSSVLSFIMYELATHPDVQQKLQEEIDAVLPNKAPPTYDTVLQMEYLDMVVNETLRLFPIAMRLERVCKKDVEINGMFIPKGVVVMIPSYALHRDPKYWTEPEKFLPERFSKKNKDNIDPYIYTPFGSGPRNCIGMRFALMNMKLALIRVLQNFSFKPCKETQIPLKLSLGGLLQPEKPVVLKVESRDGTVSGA
In short: as §1

CYP 2C9 = target: T5, CYP 2C9 (Homo sapiens, UniProt P11712); assay: CYP inhibition in human liver microsomes, 2C9; assay type: in vitro ADME; conditions: pH 7.4, @ 10 μM concn
T5 construct: from tissue; host or cells: human liver microsomes
T5 sequence (P11712 whole entry): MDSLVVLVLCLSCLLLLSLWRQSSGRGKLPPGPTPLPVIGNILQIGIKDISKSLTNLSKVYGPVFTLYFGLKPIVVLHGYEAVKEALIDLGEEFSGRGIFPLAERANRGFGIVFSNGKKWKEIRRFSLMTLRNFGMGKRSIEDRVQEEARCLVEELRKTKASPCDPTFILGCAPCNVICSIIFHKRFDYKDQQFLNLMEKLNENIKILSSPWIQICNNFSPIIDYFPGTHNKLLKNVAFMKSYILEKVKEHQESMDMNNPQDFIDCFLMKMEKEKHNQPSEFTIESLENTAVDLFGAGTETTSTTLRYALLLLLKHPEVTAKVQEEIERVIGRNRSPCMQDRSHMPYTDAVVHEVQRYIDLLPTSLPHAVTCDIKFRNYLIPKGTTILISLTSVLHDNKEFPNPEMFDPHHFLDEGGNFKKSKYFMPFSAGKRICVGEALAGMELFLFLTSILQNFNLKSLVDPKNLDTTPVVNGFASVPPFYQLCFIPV
In short: as §1

[1] = target: T6, recombinant purified human BTK (Homo sapiens, UniProt Q06187); assay: In vitro BTK kinase assay on ADP Glo platform; assay type: biochemical; conditions: 2 hr room temperature, read-out: In-vitro BTK inhibitory activity: IC50
T6 construct: purchased SignalChem, USA
T6 sequence (Q06187 whole entry): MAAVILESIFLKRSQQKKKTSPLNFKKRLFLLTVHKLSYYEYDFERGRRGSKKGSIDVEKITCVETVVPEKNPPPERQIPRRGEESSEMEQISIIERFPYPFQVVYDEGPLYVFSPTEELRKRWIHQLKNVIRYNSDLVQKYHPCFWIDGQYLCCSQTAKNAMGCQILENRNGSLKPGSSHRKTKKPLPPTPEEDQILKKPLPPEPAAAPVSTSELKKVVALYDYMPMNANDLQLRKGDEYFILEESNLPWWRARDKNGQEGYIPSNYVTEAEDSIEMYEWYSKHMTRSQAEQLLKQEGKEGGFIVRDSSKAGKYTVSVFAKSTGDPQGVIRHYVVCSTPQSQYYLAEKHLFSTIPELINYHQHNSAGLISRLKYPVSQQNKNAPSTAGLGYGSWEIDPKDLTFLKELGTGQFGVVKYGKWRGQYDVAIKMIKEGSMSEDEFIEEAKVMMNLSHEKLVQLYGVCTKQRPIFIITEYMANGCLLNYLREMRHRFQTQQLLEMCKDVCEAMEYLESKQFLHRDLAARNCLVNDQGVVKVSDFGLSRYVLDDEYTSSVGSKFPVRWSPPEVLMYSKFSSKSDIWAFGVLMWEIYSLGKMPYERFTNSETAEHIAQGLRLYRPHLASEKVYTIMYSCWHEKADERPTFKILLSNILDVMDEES
In short: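 Recombinant human BTK (3 ng/reaction) with compound dilutions in Tris pH 7.5, MgCl2/MnCl2, BSA, DTT; started with 50 µM ATP (final) and polyGln4Tyr1 substrate, 2 h at room temperature. ADP formed detected by ADP-Glo luminescence; IC50 by nonlinear fit versus uninhibited enzyme as 100%.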

Row | Structure (SMILES) | inhibition at 10 μM (CYP 1A2) | inhibition at 10 μM (CYP 2D6) | inhibition at 10 μM (CYP 2C19) | % inhibition of clinical score, Day-28, in CIA Arthritis Model (CIA Arthritis Model) | inhibition at 10 μM (CYP 3A4) | inhibition at 10 μM (CYP 2C9) | IC50 [1]
1 | C=CC(=O)N1CC2CC(N3C(=O)N(c4ccc(Oc5ccccc5)cc4)C4C(N)=NC=NC43)CC2C1 (centres unmarked) [Compound 25, 9-(2-acryloyloctahydrocyclopenta[c]pyrrol-5-yl)-6-amino-7-(4-phenoxyphenyl)-5,7-dihydro-4H-purin-8(9H)-one] | < 50% | < 50% | < 50% | 90.1 ± 6.3% | < 50% | < 50% | 5 nM
2 | C=CC(=O)N1CC2CC(n3nc(-c4ccc(NC(=O)c5ccccn5)cc4)c4c(N)ncnc43)CC2C1 (centres unmarked) [Compound 32, N-(4-(1-(2-acryloyloctahydrocyclopenta[c]pyrrol-5-yl)-4-amino-1H-pyrazolo[3,4-d]pyrimidin-3-yl)phenyl)picolinamide] | < 50% | < 50% | < 50% | 100 ± 3.9% | > 50% | < 50% | 4 nM
3 | C=CC(=O)N1CC2CC(n3nc(-c4ccc(C(=O)Nc5cc(C)ccn5)cn4)c4c(N)ncnc43)CC2C1 (centres unmarked) [Compound 42, 6-(1-(2-acryloyloctahydrocyclopenta[c]pyrrol-5-yl)-4-amino-1H-pyrazolo[3,4-d]pyrimidin-3-yl)-N-(4-methylpyridin-2-yl)nicotinamide] | < 50% | < 50% | < 50% | 100 ± 4.2% | < 50% | < 50% | 0.1 nM
4 | C=CC(=O)N1CC2CC(n3nc(-c4ccc(-c5nnc(-c6cnccn6)s5)cc4)c4c(N)ncnc43)CC2C1 (centres unmarked) [Compound 46, 1-(5-(4-amino-3-(4-(5-(pyrazin-2-yl)-1,3,4-thiadiazol-2-yl)phenyl)-1H-pyrazolo[3,4-d]pyrimidin-1-yl)hexahydrocyclopenta[c]pyrrol-2(1H)-yl)prop-2-en-1-one] | < 50% | < 50% | < 50% | 88 ± 7.1% | < 50% | < 50% | 1 nM
5 | C=CC(=O)N1CC2CC(n3nc(-c4ccc(C(=O)N(C)c5cc(C)ccn5)cc4)c4c(N)ncnc43)CC2C1 (centres unmarked) [Compound 54, 4-(1-(2-acryloyloctahydrocyclopenta[c]pyrrol-5-yl)-4-amino-1H-pyrazolo[3,4-d]pyrimidin-3-yl)-N-methyl-N-(4-methylpyridin-2-yl)benzamide] | < 50% | < 50% | < 50% | 98 ± 4.5% | < 50% | < 50% | 0.1 nM
